The target in one experiment is T1, PDE4B1 (Homo sapiens, UniProt Q07343).
T1 construct: made in house; host or cells: SF21 insect cells (baculovirus; virus prepared in SF9 cells)
The experiment can be described thus: Inhibition of PDE4B1 activity (SPA, [3H]cAMP). As to conditions: recombinant PDE4B1, 0.5 μM cAMP; binned: below 8 / between 8 and 9; read-out: PDE4B1 inhibitory values measured as −logIC50 (converted). The format is biochemical. The procedure: The PDE4B1 (GB no. L20966) was a gift of Prof. M. Conti (Stanford University, USA). It was amplified from the original plasmid (pCMV5) via PCR with primers Rb18 (5′-[…]-3′) and Rb10 (5′-[…]-3′) and cloned into the pCR-Bac vector (Invitrogen, Groningen, NL).
The recombinant baculovirus was prepared by means of homologous recombination in SF9 insect cells. The expression plasmids were cotransfected with Baculo-Gold DNA (Pharmingen, Hamburg) using a standard protocol (Pharmingen, Hamburg). Wt virus-free recombinant virus supernatants were selected using plaque assay methods. After that, high-titre virus supernatants were prepared by amplifying 3 times. PDE4B1 was expressed in SF21 cells by infecting 2×10^6 cells/ml with an MOI (multiplicity of infection) between 1 and 10 in the serum-free SF900 medium (GIBCO Life Technologies, Karlsruhe, Germany). The cells were cultured at 28° C. for 48-72 hours, after which they were pelleted for 5-10 min at 1000×g and 4° C.
The SF21 insect cells were resuspended, at a concentration of approx. 10^7 cells/ml, in ice-cold (4° C.) homogenization buffer (20 mM Tris, pH 8.2, containing the following additions: 140 mM NaCl, 3.8 mM KCl, 1 mM EGTA, 1 mM MgCl2, 10 mM β-mercaptoethanol, 2 mM benzamidine, 0.4 mM Pefablock, 10 μM leupeptin, 10 μM pepstatin A, 5 μM trypsin inhibitor) and disrupted by ultrasonication. The homogenate was then centrifuged for 10 min at 1000×g and the supernatant was stored at −80° C. until subsequent use (see below). The protein content was determined by the Bradford method (BioRad, Munich) using BSA (Bovine serum albumin) as the standard.
PDE4B1 activities were measured in a 96-well platform using SPA (scintillation proximity assay) yttrium silicate beads (RPNQ1050 from GE Healthcare). In a first step the PDE activity operated hydrolysis of either [^3H] cAMP (substrate) into [^3H] 5′AMP. In a second step substrate and product were distinguished following addition of SPA yttrium silicate beads. Indeed, in the presence of zinc sulphate the linear [^3H] […] Close proximity of bound [^3H] […] The test volume was 100 μl and finally contained 20 mM Tris buffer (pH 7.4), 0.1 mg/ml of BSA, 5 mM Mg^2+, 0.5 μM cAMP (including about 50,000 cpm of [3H]cAMP) as substrate, 1 μl of the respective substance dilution in DMSO and sufficient recombinant PDE (1000×g supernatant, see above) to ensure that 10-20% of the cAMP was converted under the said experimental conditions. […] After a preincubation of 5 min at 37° C., the reaction was commenced by adding the substrate (cAMP) and the assays were incubated for a further 15 min. Reactions were terminated by adding SPA beads (50 μl). In agreement with the manufacturer's instructions, the SPA beads had previously been resuspended in water, but were then diluted 1:3 (v/v) in water. This diluted solution further contained 3 mM IBMX (isobutylmethylxanthine) to ensure a complete block of PDE activity. Once the beads were sedimented (>30 min), the MTP's (microtiter plate) were analyzed in commercially available luminescence detection devices. The corresponding IC50 values of the compounds for inhibition of PDE4B1 activity were determined from the concentration-effect curves by means of non-linear regression.
For the following compounds PDE4B1 inhibitory values [measured as −logIC50 (mol/l)] below 8 and between 8 and 9 have been determined. The numbers of the compounds correspond to the numbers of the examples.

Another experiment addresses T2, human PDE5 (Homo sapiens, UniProt O76074).
T2 construct: from tissue; host or cells: human platelets from fresh donor blood (platelet lysate)
Briefly: Inhibition of PDE5 activity (SPA, [3H]cGMP, platelet lysate). The format is biochemical. As to conditions: 0.5 μM cGMP, binned: below 8 / between 8 and 9, read-out: PDE5 inhibitory values measured as −logIC50 (converted). The procedure: As a source for human PDE5, platelets were used. For that purpose, 150 ml fresh blood from human donors anticoagulated with citrate [final concentration 0.3% (w/v)] was centrifuged at 200 g for 10 min to obtain the so-called platelet-rich-plasma (PRP) as a supernatant. 1/10 volume of ACD solution (85 mM Na3-citrate, 111 mM D-glucose, 71 mM citric acid, pH 4.4) was added to 9/10 volume of PRP. After centrifugation (1,400 g, 10 min) the cell pellet was resuspended in 3 ml homogenization buffer (NaCl 140 mM, KCl 3.8 mM, EGTA (ethylene glycol tetraacetic acid) 1 mM, MgCl2 1 mM, Tris-HCl 20 mM, beta-mercaptoethanol 1 mM, pH 8.2) plus protease-inhibitor mix resulting in final concentrations of 0.5 mM Pefablock (Roche), 10 μM Leupeptin, 5 μM Trypsine inhibitor, 2 mM Benzamidin and 10 μM Pepstatin A. The suspension was sonicated and thereafter centrifuged for 15 min at 10,000 g. The resulting supernatant (platelet lysate) was used for enzymatic assays.
PDE5 activities were measured in a 96-well platform using SPA (scintillation proximity assay) yttrium silicate beads (RPNQ1050 from GE Healthcare). In a first step the PDE activity operated hydrolysis of either [^3H] cGMP (substrate) into [^3H] 5′GMP. In a second step substrate and product were distinguished following addition of SPA yttrium silicate beads. Indeed, in the presence of zinc sulphate the linear [^3H] […] Close proximity of bound [^3H] […] The test volume was 100 μl and contained 20 mM Tris buffer (pH 7.4), 0.1 mg of BSA (bovine serum albumin)/ml, 5 mM Mg^2+, 1 μM motapizone (PDE3 Inhibitor), 10 nM PDE2 inhibitor 2-(3,4-dimethoxybenzyl)-7-[(1R,2R)-2-hydroxy-1-(2-phenylethyl)propyl]-5-methylimidazo[5,1-f][1,2,4]triazin-4(3H)-one, 0.5 μM cGMP (cyclic guanosine monophosphate) (including about 50,000 cpm of [3H]cGMP as a tracer) (substrate), 1 μl of the respective compound dilution in dimethylsulfoxide (DMSO) and sufficient PDE5-containing platelet lysat (10,000×g supernatant, see above) to ensure that 10-20% of the cGMP was converted under the said experimental conditions. […] After a preincubation of 5 min at 37° C., the reaction was commenced by adding the substrate (cGMP) and the assay was incubated for a further 15 min. The reaction was terminated by adding SPA beads (50 μl). In agreement with the manufacturer's instructions, the SPA beads had previously been resuspended in water, but were then diluted 1:3 (v/v) in water. This diluted solution also contained 3 mM 8-methoxymethyl-3-isobutyl-1-methylxanthine (IBMX) to ensure a complete block of PDE activity. Once the beads were sedimented (>30 min), the MTP's were analyzed in commercially available luminescence detection devices. The corresponding IC50 values of the compounds for inhibition of PDE activity were determined from the concentration-effect curves by means of non-linear regression.
For the following compounds PDE5 inhibitory values [measured as −logIC50 (mol/l)] below 8 and between 8 and 9 have been determined. The numbers of the compounds correspond to the numbers of the examples.

T1 sequence (Q07343 whole entry): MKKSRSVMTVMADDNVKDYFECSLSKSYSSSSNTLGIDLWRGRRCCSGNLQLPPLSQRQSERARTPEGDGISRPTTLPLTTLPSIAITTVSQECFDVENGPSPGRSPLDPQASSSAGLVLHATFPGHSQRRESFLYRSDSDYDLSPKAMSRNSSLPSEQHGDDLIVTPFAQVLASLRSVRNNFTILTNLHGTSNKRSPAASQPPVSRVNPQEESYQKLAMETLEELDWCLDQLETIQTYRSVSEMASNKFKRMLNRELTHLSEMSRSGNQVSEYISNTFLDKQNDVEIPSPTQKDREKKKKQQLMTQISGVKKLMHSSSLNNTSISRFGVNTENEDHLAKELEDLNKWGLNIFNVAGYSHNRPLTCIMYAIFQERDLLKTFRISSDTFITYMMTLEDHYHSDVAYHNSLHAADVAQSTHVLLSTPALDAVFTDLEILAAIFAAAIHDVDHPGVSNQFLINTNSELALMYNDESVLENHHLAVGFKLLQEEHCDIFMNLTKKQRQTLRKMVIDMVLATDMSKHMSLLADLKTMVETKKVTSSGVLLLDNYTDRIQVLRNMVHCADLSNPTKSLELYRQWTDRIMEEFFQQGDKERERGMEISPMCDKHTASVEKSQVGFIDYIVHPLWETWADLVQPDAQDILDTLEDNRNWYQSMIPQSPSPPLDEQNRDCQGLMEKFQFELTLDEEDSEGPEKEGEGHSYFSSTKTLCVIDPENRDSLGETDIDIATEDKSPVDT

Turning to `CCOc1cc2c(cc1OC)C(c1ccc(C(=O)N3CCC(n4c(=O)c5sc(-c6ccccc6)cc5n(Cc5ccc(OC)c(F)c5)c4=O)CC3)cc1)=N[C@@H]1CCSC[C@H]21` [Example 1, 3-(1-{4-[(4aR,10bR)-9-ethoxy-8-methoxy-3,4,4a,10b-tetrahydro-1H-thiopyrano[4,3-c]isoquinolin-6-yl]benzoyl}piperidin-4-yl)-1-(3-fluoro-4-methoxybenzyl)-6-phenylthieno[3,2-d]pyrimidine-2,4(1H,3H)-dione], the IC50 at PDE4B1 and at human PDE5 was 1 to 10 nM throughout.

In the case of `CCOc1cc2c(cc1OC)C(c1cccc(C(=O)N3CCC(n4c(=O)c5sc(-c6ccccc6)cc5n(Cc5ccc(OC)c(F)c5)c4=O)CC3)c1)=N[C@@H]1CCSC[C@H]21` [Example 2, 3-[1-({3-[(4aR,10bR)-9-ethoxy-8-methoxy-3,4,4a,10b-tetrahydro-1H-thiopyrano[4,3-c]isoquinolin-6-yl]phenyl}carbonyl)piperidin-4-yl]-1-(3-fluoro-4-methoxybenzyl)-6-phenylthieno[3,2-d]pyrimidine-2,4(1H,3H)-dione], the IC50 on PDE4B1 and on human PDE5 was 1 to 10 nM in each case.

Turning to `CCOc1cc2c(cc1OC)C(c1ccc(C(=O)N3CCC(n4c(=O)c5sc(-c6ccccc6)cc5n(Cc5cc(F)c(OC)c(F)c5)c4=O)CC3)cc1)=N[C@@H]1CCSC[C@H]21` [Example 3, 1-(3,5-difluoro-4-methoxybenzyl)-3-[1-({4-[(4aR,10bR)-9-ethoxy-8-methoxy-3,4,4a,10b-tetrahydro-1H-thiopyrano[4,3-c]isoquinolin-6-yl]phenyl}carbonyl)piperidin-4-yl]-6-phenylthieno[3,2-d]pyrimidine-2,4(1H,3H)-dione], the IC50 at PDE4B1 and at human PDE5 was 1 to 10 nM each time.

Take `CCOc1cc2c(cc1OC)C(c1ccc(C(=O)N3CCC(n4c(=O)c5sc(-c6ccccc6)cc5n(Cc5ccc(OC)c(F)c5F)c4=O)CC3)cc1)=N[C@@H]1CCSC[C@H]21` [Example 4, 1-(2,3-difluoro-4-methoxybenzyl)-3-[1-({4-[(4aR,10bR)-9-ethoxy-8-methoxy-3,4,4a,10b-tetrahydro-1H-thiopyrano[4,3-c]isoquinolin-6-yl]phenyl}carbonyl)piperidin-4-yl]-6-phenylthieno[3,2-d]pyrimidine-2,4(1H,3H)-dione]: the IC50 at PDE4B1 and on human PDE5 was 1 to 10 nM each time.

On to `CCOc1cc2c(cc1OC)C(c1ccc(C(=O)N3CCC(n4c(=O)c5sc(-c6ccccc6)cc5n(Cc5cc(OC)c(OC)cc5F)c4=O)CC3)cc1)=N[C@@H]1CCSC[C@H]21` [Example 5, 3-[1-({4-[(4aR,10bR)-9-ethoxy-8-methoxy-3,4,4a,10b-tetrahydro-1H-thiopyrano[4,3-c]isoquinolin-6-yl]phenyl}carbonyl)piperidin-4-yl]-1-(2-fluoro-4,5-dimethoxybenzyl)-6-phenylthieno[3,2-d]pyrimidine-2,4(1H,3H)-dione], for which the IC50 at PDE4B1 and on human PDE5 was 1 to 10 nM throughout.

For `CCOc1cc2c(cc1OC)C(c1ccc(C(=O)N3CCC(n4c(=O)c5sc(-c6ccccc6)cc5n(Cc5ccc(C)c(F)c5)c4=O)CC3)cc1)=N[C@@H]1CCSC[C@H]21` [Example 6, 3-[1-({4-[(4aR,10bR)-9-ethoxy-8-methoxy-3,4,4a,10b-tetrahydro-1H-thiopyrano[4,3-c]isoquinolin-6-yl]phenyl}carbonyl)piperidin-4-yl]-1-(3-fluoro-4-methylbenzyl)-6-phenylthieno[3,2-d]pyrimidine-2,4(1H,3H)-dione], the IC50 on PDE4B1 was greater than 10 nM; at human PDE5, 1 to 10 nM.

Take `CCOc1cc2c(cc1OC)C(c1ccc(C(=O)N3CCC(n4c(=O)c5sc(-c6ccccc6)cc5n(Cc5ccccc5)c4=O)CC3)cc1)=N[C@@H]1CCSC[C@H]21` [Example 7, 1-benzyl-3-[1-({4-[(4aR,10bR)-9-ethoxy-8-methoxy-3,4,4a,10b-tetrahydro-1H-thiopyrano[4,3-c]isoquinolin-6-yl]phenyl}carbonyl)piperidin-4-yl]-6-phenylthieno[3,2-d]pyrimidine-2,4(1H,3H)-dione]: the IC50 on PDE4B1 and at human PDE5 was 1 to 10 nM in each case.

Values taken from patent US20140113877A1, “NOVEL 3,4,4A,10B-TETRAHYDRO-1H-THIOPYRANO[4,3-C] ISOQUINOLINE COMPOUNDS” (Takeda GmbH, priority 2011, published 2014).
